Experimental data reported in ChEMBL document CHEMBL4765347, “Radiomodulatory effect of a non-electrophilic NQO1 inducer identified in a screen of new 6, 8-diiodoquinazolin-4(3H)-ones carrying a sulfonamide moiety” (Eur J Med Chem, 2020).

Columns and labels:
Conditions in all cases: filed as activator, time 50.0 min
[1] = biological target: Nuclear factor erythroid 2-related factor 2 (Mus musculus) (UniProt Q60795); experiment: Activation of Nrf2 in mouse Hepa1c1c7 cells assessed as increase in NQO1 activity at 6.25 uM using menadione as substrate incubated for 20 mins followed by substrate addition and measured after 30 mins by spectrophotometry relative to control
Chain of Nuclear factor erythroid 2-related factor 2 (Mus musculus) (Q60795 whole entry, looked up): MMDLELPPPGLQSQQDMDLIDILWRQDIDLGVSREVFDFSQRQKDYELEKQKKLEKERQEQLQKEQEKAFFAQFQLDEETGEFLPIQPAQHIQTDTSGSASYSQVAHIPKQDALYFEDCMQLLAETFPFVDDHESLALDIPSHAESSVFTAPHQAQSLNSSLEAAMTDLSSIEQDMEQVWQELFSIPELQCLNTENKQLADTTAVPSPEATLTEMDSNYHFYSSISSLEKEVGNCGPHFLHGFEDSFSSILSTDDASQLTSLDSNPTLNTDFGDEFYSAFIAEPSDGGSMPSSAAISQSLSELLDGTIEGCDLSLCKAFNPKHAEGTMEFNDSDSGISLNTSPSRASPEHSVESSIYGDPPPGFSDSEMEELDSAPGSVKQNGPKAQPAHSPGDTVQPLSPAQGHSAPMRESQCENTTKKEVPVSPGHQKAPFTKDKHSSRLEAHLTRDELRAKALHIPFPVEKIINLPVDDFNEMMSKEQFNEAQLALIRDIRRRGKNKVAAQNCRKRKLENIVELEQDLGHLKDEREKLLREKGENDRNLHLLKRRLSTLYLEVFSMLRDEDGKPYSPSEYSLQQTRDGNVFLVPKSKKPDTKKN

Nrf2 (Mus musculus) [2] = experiment: Activation of Nrf2 in mouse Hepa1c1c7 cells assessed as increase in NQO1 activity at 0.8 uM using menadione as substrate incubated for 20 mins followed by substrate addition and measured after 30 mins by spectrophotometry relative to control
Nrf2 (Mus musculus) [3] = experiment: Activation of Nrf2 in mouse Hepa1c1c7 cells assessed as increase in NQO1 activity at 0.4 uM using menadione as substrate incubated for 20 mins followed by substrate addition and measured after 30 mins by spectrophotometry relative to control
Nrf2 (Mus musculus) [4] = experiment: Activation of Nrf2 in mouse Hepa1c1c7 cells assessed as increase in NQO1 activity at 1.6 uM using menadione as substrate incubated for 20 mins followed by substrate addition and measured after 30 mins by spectrophotometry relative to control
[5] = biological target: Nuclear factor erythroid 2-related factor 2 (Mus musculus) (UniProt Q60795); experiment: Activation of Nrf2 in mouse Hepa1c1c7 cells assessed as increase in NQO1 activity at 25 uM using menadione as substrate incubated for 20 mins followed by substrate addition and measured after 30 mins by spectrophotometry relative to control
[6] = biological target: Nuclear factor erythroid 2-related factor 2 (Mus musculus) (UniProt Q60795); experiment: Activation of Nrf2 in mouse Hepa1c1c7 cells assessed as increase in NQO1 activity at 50 uM using menadione as substrate incubated for 20 mins followed by substrate addition and measured after 30 mins by spectrophotometry relative to control
[7] = biological target: Nuclear factor erythroid 2-related factor 2 (Mus musculus) (UniProt Q60795); experiment: Activation of Nrf2 in mouse Hepa1c1c7 cells assessed as increase in NQO1 activity at 12.5 uM using menadione as substrate incubated for 20 mins followed by substrate addition and measured after 30 mins by spectrophotometry relative to control
Nrf2 (Mus musculus) [8] = experiment: Activation of Nrf2 in mouse Hepa1c1c7 cells assessed as increase in NQO1 activity at 3.125 uM using menadione as substrate incubated for 20 mins followed by substrate addition and measured after 30 mins by spectrophotometry relative to control
Nrf2 (Mus musculus) [9] = experiment: Activation of Nrf2 in mouse Hepa1c1c7 cells assessed as increase in NQO1 activity at 2.5 uM using menadione as substrate incubated for 20 mins followed by substrate addition and measured after 30 mins by spectrophotometry relative to control
Nrf2 (Mus musculus) [10] = experiment: Activation of Nrf2 in mouse Hepa1c1c7 cells assessed as increase in NQO1 activity at 1.25 uM using menadione as substrate incubated for 20 mins followed by substrate addition and measured after 30 mins by spectrophotometry relative to control
Nrf2 (Mus musculus) [11] = experiment: Activation of Nrf2 in mouse Hepa1c1c7 cells assessed as increase in NQO1 activity at 0.313 uM using menadione as substrate incubated for 20 mins followed by substrate addition and measured after 30 mins by spectrophotometry relative to control
Nrf2 (Mus musculus) [12] = experiment: Activation of Nrf2 in mouse Hepa1c1c7 cells assessed as increase in NQO1 activity at 10 uM using menadione as substrate incubated for 20 mins followed by substrate addition and measured after 30 mins by spectrophotometry relative to control
Nrf2 (Mus musculus) [13] = experiment: Activation of Nrf2 in mouse Hepa1c1c7 cells assessed as increase in NQO1 activity at 5 uM using menadione as substrate incubated for 20 mins followed by substrate addition and measured after 30 mins by spectrophotometry relative to control
Nrf2 (Mus musculus) [14] = experiment: Activation of Nrf2 in mouse Hepa1c1c7 cells assessed as increase in NQO1 activity at 0.625 uM using menadione as substrate incubated for 20 mins followed by substrate addition and measured after 30 mins by spectrophotometry relative to control
Nrf2 (Mus musculus) [15] = experiment: Activation of Nrf2 in mouse Hepa1c1c7 cells assessed as increase in NQO1 activity at 20 uM using menadione as substrate incubated for 20 mins followed by substrate addition and measured after 30 mins by spectrophotometry relative to control
[16] = biological target: Nuclear factor erythroid 2-related factor 2 (Mus musculus) (UniProt Q60795); experiment: Activation of Nrf2 in mouse Hepa1c1c7 cells assessed as increase in NQO1 activity at 40 uM using menadione as substrate incubated for 20 mins followed by substrate addition and measured after 30 mins by spectrophotometry relative to control
Nrf2 (Mus musculus) [17] = experiment: Activation of Nrf2 in mouse Hepa1c1c7 cells assessed as increase in NQO1 activity using menadione as substrate incubated for 20 mins followed by substrate addition and measured after 30 mins by spectrophotometry

CCc1ccc(NC(=O)CSc2nc3c(I)cc(I)cc3c(=O)n2-c2ccc(S(N)(=O)=O)cc2)cc1
T/C [1]: 0.99 | T/C (Nrf2 (Mus musculus) [2]): 0.99 | T/C (Nrf2 (Mus musculus) [3]): 0.98 | T/C (Nrf2 (Mus musculus) [4]): 0.98 | T/C [5]: 1.03 | T/C [6]: 1.14 | T/C [7]: 1.01 | T/C (Nrf2 (Mus musculus) [8]): 0.97

NS(=O)(=O)c1ccc(-n2c(SCC(=O)Nc3ccc([N+](=O)[O-])cc3[N+](=O)[O-])nc3c(I)cc(I)cc3c2=O)cc1
T/C (Nrf2 (Mus musculus) [9]): 1.04 | T/C (Nrf2 (Mus musculus) [10]): 1.03 | T/C (Nrf2 (Mus musculus) [11]): 1.01 | T/C (Nrf2 (Mus musculus) [12]): 1.2 | T/C (Nrf2 (Mus musculus) [13]): 1.08 | T/C (Nrf2 (Mus musculus) [14]): 1.04 | T/C (Nrf2 (Mus musculus) [15]): 1.36 | T/C [16]: 1.68

NS(=O)(=O)c1ccc(-n2c(SCC(=O)Nc3ccccc3)nc3c(I)cc(I)cc3c2=O)cc1
T/C [1]: 1.11 | T/C (Nrf2 (Mus musculus) [2]): 1 | T/C (Nrf2 (Mus musculus) [3]): 1.03 | T/C (Nrf2 (Mus musculus) [4]): 1.03 | T/C [5]: 1.26 | T/C [6]: 1.47 | T/C [7]: 1.18 | T/C (Nrf2 (Mus musculus) [8]): 1.06

Cc1cc([N+](=O)[O-])ccc1NC(=O)CSc1nc2c(I)cc(I)cc2c(=O)n1-c1ccc(S(N)(=O)=O)cc1
T/C (Nrf2 (Mus musculus) [9]): 1 | T/C (Nrf2 (Mus musculus) [10]): 0.99 | T/C (Nrf2 (Mus musculus) [11]): 1.01 | T/C (Nrf2 (Mus musculus) [12]): 1.28 | T/C (Nrf2 (Mus musculus) [13]): 1.06 | T/C (Nrf2 (Mus musculus) [14]): 1.01 | T/C (Nrf2 (Mus musculus) [15]): 1.53

Cc1ccc(NC(=O)CSc2nc3c(I)cc(I)cc3c(=O)n2-c2ccc(S(N)(=O)=O)cc2)cc1
T/C [1]: 0.99 | T/C (Nrf2 (Mus musculus) [2]): 0.99 | T/C (Nrf2 (Mus musculus) [3]): 1.01 | T/C (Nrf2 (Mus musculus) [4]): 0.99 | T/C [5]: 1.08 | T/C [6]: 1.13 | T/C [7]: 1 | T/C (Nrf2 (Mus musculus) [8]): 0.97

COc1cc(NC(=O)CSc2nc3c(I)cc(I)cc3c(=O)n2-c2ccc(S(N)(=O)=O)cc2)cc(OC)c1
T/C [1]: 1.22 | T/C (Nrf2 (Mus musculus) [2]): 1.01 | T/C (Nrf2 (Mus musculus) [3]): 1 | T/C (Nrf2 (Mus musculus) [4]): 1.02 | T/C [5]: 1.73 | T/C [6]: 1.81 | T/C [7]: 1.52 | T/C (Nrf2 (Mus musculus) [8]): 1.06

CCOc1ccc(NC(=O)CSc2nc3c(I)cc(I)cc3c(=O)n2-c2ccc(S(N)(=O)=O)cc2)cc1
T/C (Nrf2 (Mus musculus) [9]): 1.02 | T/C (Nrf2 (Mus musculus) [10]): 0.99 | T/C (Nrf2 (Mus musculus) [11]): 1.01 | T/C (Nrf2 (Mus musculus) [12]): 0.99 | T/C (Nrf2 (Mus musculus) [13]): 1 | T/C (Nrf2 (Mus musculus) [14]): 1.02 | T/C (Nrf2 (Mus musculus) [15]): 1.09 | T/C [16]: 1.16

Cc1cccc([N+](=O)[O-])c1NC(=O)CSc1nc2c(I)cc(I)cc2c(=O)n1-c1ccc(S(N)(=O)=O)cc1
T/C [1]: 0.91 | T/C (Nrf2 (Mus musculus) [2]): 0.93 | T/C (Nrf2 (Mus musculus) [3]): 0.95 | T/C (Nrf2 (Mus musculus) [4]): 0.89 | Activity (Nrf2 (Mus musculus) [17]): Dose-dependent effect | CD (Nrf2 (Mus musculus) [17]): 50 µM | T/C [5]: 1.34 | T/C [6]: 1.94 | T/C [7]: 1.05 | T/C (Nrf2 (Mus musculus) [8]): 0.83

Cc1ccccc1NC(=O)CSc1nc2c(I)cc(I)cc2c(=O)n1-c1ccc(S(N)(=O)=O)cc1
T/C [1]: 1.13 | T/C (Nrf2 (Mus musculus) [2]): 1.04 | T/C (Nrf2 (Mus musculus) [3]): 1.04 | T/C (Nrf2 (Mus musculus) [4]): 1.04 | T/C [5]: 1.31 | T/C [6]: 1.43 | T/C [7]: 1.27 | T/C (Nrf2 (Mus musculus) [8]): 1.06

Cc1cccc(NC(=O)CSc2nc3c(I)cc(I)cc3c(=O)n2-c2ccc(S(N)(=O)=O)cc2)c1
T/C [1]: 1.06 | T/C (Nrf2 (Mus musculus) [2]): 1.01 | T/C (Nrf2 (Mus musculus) [3]): 1.05 | T/C (Nrf2 (Mus musculus) [4]): 1.04 | T/C [5]: 1.27 | T/C [6]: 1.48 | T/C [7]: 1.14 | T/C (Nrf2 (Mus musculus) [8]): 1.05

COc1ccc(NC(=O)CSc2nc3c(I)cc(I)cc3c(=O)n2-c2ccc(S(N)(=O)=O)cc2)cc1
T/C [1]: 0.99 | T/C (Nrf2 (Mus musculus) [2]): 1.02 | T/C (Nrf2 (Mus musculus) [3]): 1.01 | T/C (Nrf2 (Mus musculus) [4]): 1 | T/C [5]: 1.18 | T/C [6]: 1.29 | T/C [7]: 1.08 | T/C (Nrf2 (Mus musculus) [8]): 0.98

CCc1ccccc1NC(=O)CSc1nc2c(I)cc(I)cc2c(=O)n1-c1ccc(S(N)(=O)=O)cc1
T/C (Nrf2 (Mus musculus) [9]): 0.97 | T/C (Nrf2 (Mus musculus) [10]): 0.99 | T/C (Nrf2 (Mus musculus) [11]): 0.99 | T/C (Nrf2 (Mus musculus) [12]): 1.01 | T/C (Nrf2 (Mus musculus) [13]): 1.01 | T/C (Nrf2 (Mus musculus) [14]): 0.97 | T/C (Nrf2 (Mus musculus) [15]): 1.01 | T/C [16]: 1.05

NS(=O)(=O)c1ccc(-n2c(S)nc3c(I)cc(I)cc3c2=O)cc1
T/C [1]: 1.02 | T/C (Nrf2 (Mus musculus) [2]): 1.04 | T/C (Nrf2 (Mus musculus) [3]): 1.01 | T/C (Nrf2 (Mus musculus) [4]): 1.06 | T/C [5]: 1.05 | T/C [7]: 1.06 | T/C (Nrf2 (Mus musculus) [8]): 1.01

CCc1cccc(NC(=O)CSc2nc3c(I)cc(I)cc3c(=O)n2-c2ccc(S(N)(=O)=O)cc2)c1
T/C (Nrf2 (Mus musculus) [9]): 1.04 | T/C (Nrf2 (Mus musculus) [10]): 1.05 | T/C (Nrf2 (Mus musculus) [11]): 1.03 | T/C (Nrf2 (Mus musculus) [12]): 1.09 | T/C (Nrf2 (Mus musculus) [13]): 1.04 | T/C (Nrf2 (Mus musculus) [14]): 1.02 | T/C (Nrf2 (Mus musculus) [15]): 1.15 | T/C [16]: 1.3
